# Reference: US20150105252A1, “SUBSTITUTED PYRAZOLES AS HERBICIDES” (E I DU PONT DE NEMOURS AND COMPANY, priority 2013, published 2015)
# How the values were obtained:
# [1] = test system: barnyardgrass; assay: Test A preemergence; type: in vivo, Echinochloa crus-galli; conditions: preemergence; for Barnyardgrass plant response rating (0 to 100 scale, 0 is no effect, 100 is complete control): visual injury approx. 10 days after treatment
# In short: (§1)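 Visual injury rating, 0–100 (0 no effect, 100 complete control), vs untreated controls ~10 days after treatment in greenhouse. Pre: directed soil spray on seeded loam/sand. Post: 2–10 cm plants, 1–2 leaf stage. Formulation: non-phytotoxic solvent mix + surfactant.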
# [2] = test system: kochia; assay: Test A preemergence; type: in vivo, Kochia scoparia; conditions: for Kochia plant response rating (0 to 100 scale): visual injury approx. 10 days after treatment
# From the text: (§2) Seeds of plant species selected from barnyardgrass (Echinochloa crus-galli), kochia (Kochia scoparia), common ragweed (Ambrosia elation), Italian ryegrass (Lolium multiflorum), crabgrass, large (large crabgrass, Digitaria sanguinalis), foxtail, giant (giant foxtail, Setaria faberii), morningglory (Ipomoea spp.), pigweed (redroot pigweed, Amaranthus retroflexus), velvetleaf (Abutilon theophrasti), wheat (Triticum aestivum), and corn (Zea mays) were planted into a blend of loam soil and sand and treated preemergence with a directed soil spray using test chemicals formulated in a non-phytotoxic solvent mixture which included a surfactant.
# (§3) At the same time, plants selected from these crop and weed species and also blackgrass (Alopecurus myosuroides), and galium (catchweed bedstraw, Galium aparine) were planted in pots containing the same blend of loam soil and sand and treated with postemergence applications of test chemicals formulated in the same manner. Plants ranged in height from 2 to 10 cm and were in the one- to two-leaf stage for the postemergence treatment. Treated plants and untreated controls were maintained in a greenhouse for approximately 10 days, after which time all treated plants were compared to untreated controls and visually evaluated for injury. Plant response ratings, summarized in Table A, are based on a 0 to 100 scale where 0 is no effect and 100 is complete control. A dash (-) response means no test result.
# [3] = test system: common ragweed; assay: Test A preemergence; type: in vivo, Ambrosia elation; conditions: for Common Ragweed plant response rating (0 to 100 scale): visual injury approx. 10 days after treatment
# From the text: as §2, §3
# [4] = test system: Italian ryegrass; assay: Test A preemergence; type: in vivo, Lolium multiflorum; conditions: for Italian Ryegrass plant response rating (0 to 100 scale): visual injury approx. 10 days after treatment
# From the text: as §2, §3
# [5] = test system: foxtail, giant; assay: Test A preemergence; type: in vivo, Setaria faberii; conditions: preemergence; for Foxtail, Giant plant response rating (0 to 100 scale): visual injury approx. 10 days after treatment
# In short: as §1
# [6] = test system: pigweed; assay: Test A preemergence; type: in vivo, Amaranthus retroflexus; conditions: preemergence; for Pigweed plant response rating (0 to 100 scale): visual injury approx. 10 days after treatment
# In short: as §1
# [7] = test system: barnyardgrass; assay: Test A postemergence; type: in vivo, Echinochloa crus-galli
# In short: as §1
# [8] = test system: kochia; assay: Test A postemergence; type: in vivo, Kochia scoparia
# From the text: as §2, §3
# [9] = test system: common ragweed; assay: Test A postemergence; type: in vivo, Ambrosia elation
# From the text: as §2, §3
# [10] = test system: Italian ryegrass; assay: Test A postemergence; type: in vivo, Lolium multiflorum
# From the text: as §2, §3
# [11] = test system: foxtail, giant; assay: Test A postemergence; type: in vivo, Setaria faberii
# In short: as §1
# [12] = test system: pigweed; assay: Test A postemergence; type: in vivo, Amaranthus retroflexus
# In short: as §1
# [13] = test system: wheat; assay: Test A postemergence; type: in vivo, Triticum aestivum
# In short: as §1
# [14] = test system: corn; assay: Test A postemergence; type: in vivo, Zea mays
# In short: as §1
# [15] = test system: blackgrass; assay: Test A postemergence; type: in vivo, Alopecurus myosuroides
# From the text: as §2, §3
# [16] = test system: galium; assay: Test A postemergence; type: in vivo, Galium aparine
# From the text: as §2, §3
# [17] = test system: rice; assay: Test B flood; type: in vivo, Oryza sativa; conditions: 250 g ai/ha, visual rating on 0 to 100 scale (0 no effect, 100 complete control), 13 to 15 days
# In short: (§4)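 Two-leaf-stage plants, pots flooded (3 cm above soil) and treated through the water, which stayed at that depth. After 13–15 days in greenhouse conditions, visual assessment versus controls: 0 is no effect, 100 complete control, dash means no result.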
# [18] = test system: sedge, umbrella; assay: Test B flood; type: in vivo, Cyperus difformis; conditions: 250 g ai/ha, visual rating on 0 to 100 scale (0 no effect, 100 complete control), 13 to 15 days
# In short: as §4
# [19] = test system: ducksalad; assay: Test B flood; type: in vivo, Heteranthera limosa; conditions: 250 g ai/ha, visual rating on 0 to 100 scale (0 no effect, 100 complete control), 13 to 15 days
# In short: as §4
# [20] = test system: barnyardgrass; assay: Test B flood; type: in vivo, Echinochloa crus-galli; conditions: 250 g ai/ha, visual rating on 0 to 100 scale (0 no effect, 100 complete control), 13 to 15 days
# In short: as §4
# [21] = 500 g ai/ha, visual injury after approx. 10 days, 0 to 100 scale (0 no effect, 100 complete control)
# [22] = Postemergence, 500 g ai/ha, 0 to 100 scale (0 no effect, 100 complete control)
# [23] = postemergence, 125 g ai/ha, about 10 days, visual rating on 0 to 100 scale (0 no effect, 100 complete control)
# [24] = Postemergence, 125 g ai/ha, 0 to 100 scale, 0 no effect, 100 complete control
# [25] = 125 g ai/ha, visual injury, 0 to 100 scale, approx. 10 days
SMILES,"Barnyardgrass plant response rating [1, 21]","Common Ragweed plant response rating [3, 21]","Italian Ryegrass plant response rating [4, 21]","Foxtail, Giant plant response rating [5, 21]","Barnyardgrass plant response rating [7, 22]","Barnyardgrass plant response rating [7, 23]","Kochia plant response rating [8, 22]","Common Ragweed plant response rating [9, 22]","Common Ragweed plant response rating [9, 23]","Italian Ryegrass plant response rating [10, 22]","Foxtail, Giant plant response rating [11, 22]","Pigweed plant response rating [12, 22]","Wheat plant response rating [13, 22]","Corn plant response rating [14, 22]","Blackgrass plant response rating [15, 22]","Galium plant response rating [16, 22]","Plant response rating, Rice [17]","Plant response rating, Sedge, Umbrella [18]","Plant response rating, Ducksalad [19]","Plant response rating, Barnyardgrass [20]",also measured
CCCNC(=O)c1cc(CC)n(Cc2cc(C(F)(F)F)nn2C(C)C)n1 [Compound 209],0,0,0,0,0,0,0,0,0,0,0,0,0,0,0,0,0,0,0,0,"Barnyardgrass plant response rating (0 to 100 scale, 0 is no effect, 100 is complete control) ([1]; 125 g ai/ha): 0; Kochia plant response rating (0 to 100 scale) ([2]; 125 g ai/ha): 0; Common Ragweed plant response rating (0 to 100 scale) ([3]; 125 g ai/ha): 0; Italian Ryegrass plant response rating (0 to 100 scale) ([4]; 125 g ai/ha): 0; Foxtail, Giant plant response rating (0 to 100 scale) ([5]; 125 g ai/ha): 0; Pigweed plant response rating (0 to 100 scale) ([6]; 125 g ai/ha): 0; Kochia plant response rating [8, 24]: 0; Italian Ryegrass plant response rating [10, 24]: 0; Foxtail, Giant plant response rating [11, 23]: 0; Pigweed plant response rating [12, 24]: 0; Wheat plant response rating [13, 24]: 0; Corn plant response rating [14, 23]: 0; Blackgrass plant response rating [15, 23]: 0; Galium plant response rating [16, 24]: 0"
CCc1cc(C(=O)NC(C)C)nn1Cc1cc(OC(F)F)nn1C [Compound 137],70,100,40,80,60,0,90,30,10,20,70,80,10,30,50,80,0,30,30,0,"Barnyardgrass plant response rating [1, 25]: 10; Kochia plant response rating [2, 25]: 30; Kochia plant response rating [2, 21]: 100; Common Ragweed plant response rating [3, 25]: 10; Italian Ryegrass plant response rating [4, 25]: 0; Foxtail, Giant plant response rating [5, 25]: 20; Pigweed plant response rating [6, 25]: 60; Pigweed plant response rating [6, 21]: 100; Kochia plant response rating [8, 23]: 50; Italian Ryegrass plant response rating [10, 23]: 0; Foxtail, Giant plant response rating [11, 23]: 10; Pigweed plant response rating [12, 23]: 50; Wheat plant response rating [13, 23]: 0; Corn plant response rating [14, 23]: 10; Blackgrass plant response rating [15, 23]: 10; Galium plant response rating [16, 23]: 50"
CCc1cc(C(=O)NC(C)C)nn1Cc1cc(C(F)(F)F)nn1C(C)C [Compound 210],0,0,0,0,0,–,20,0,–,0,0,20,0,0,0,20,0,0,0,0,"Barnyardgrass plant response rating (0 to 100 scale, 0 is no effect, 100 is complete control) ([1]; 125 g ai/ha): 0; Kochia plant response rating (0 to 100 scale) ([2]; 125 g ai/ha): 0; Common Ragweed plant response rating (0 to 100 scale) ([3]; 125 g ai/ha): 0; Italian Ryegrass plant response rating (0 to 100 scale) ([4]; 125 g ai/ha): 0; Foxtail, Giant plant response rating (0 to 100 scale) ([5]; 125 g ai/ha): 0; Pigweed plant response rating (0 to 100 scale) ([6]; 125 g ai/ha): 0; Barnyardgrass plant response rating [7, 24]: 0; Kochia plant response rating [8, 24]: 10; Common Ragweed plant response rating [9, 24]: 0; Italian Ryegrass plant response rating [10, 24]: 0; Foxtail, Giant plant response rating [11, 24]: 0; Pigweed plant response rating [12, 24]: 0; Wheat plant response rating [13, 24]: 0; Corn plant response rating [14, 24]: 0; Blackgrass plant response rating [15, 24]: 0; Galium plant response rating [16, 24]: 0"
CCCNC(=O)c1cc(CC)n(Cc2cc(C(F)(F)F)no2)n1 [Compound 122],100,–,30,100,70,0,90,30,10,50,90,40,10,60,80,70,30,50,50,20,"Barnyardgrass plant response rating [1, 25]: 0; Kochia plant response rating [2, 25]: 10; Kochia plant response rating [2, 21]: 90; Common Ragweed plant response rating [3, 25]: 10; Italian Ryegrass plant response rating [4, 25]: 0; Foxtail, Giant plant response rating [5, 25]: 20; Pigweed plant response rating [6, 25]: 60; Pigweed plant response rating [6, 21]: 100; Kochia plant response rating [8, 23]: 50; Italian Ryegrass plant response rating [10, 23]: 10; Foxtail, Giant plant response rating [11, 23]: 0; Pigweed plant response rating [12, 23]: 30; Wheat plant response rating [13, 23]: 0; Corn plant response rating [14, 23]: 20; Blackgrass plant response rating [15, 23]: 10; Galium plant response rating [16, 23]: 10"
